39 compounds from patent US20260327234A1, “NOVEL COMPOUNDS AS CYP11A1 INHIBITORS AND METHODS OF USE THEREOF” (Shenzhen Ionova Life Science Co., Ltd., priority 2023, published 2026) can be followed below.

By IC50 is commonly meant the midpoint of a concentration-inhibition curve.

One experiment addresses T1, CYP11A1 (Homo sapiens, UniProt P05108).
T1 construct: measuring the cellular production of pregnenolone (P) catalyzed by CYP11A1; host or cells: NCI-H295R
T1 sequence (P05108 40-521): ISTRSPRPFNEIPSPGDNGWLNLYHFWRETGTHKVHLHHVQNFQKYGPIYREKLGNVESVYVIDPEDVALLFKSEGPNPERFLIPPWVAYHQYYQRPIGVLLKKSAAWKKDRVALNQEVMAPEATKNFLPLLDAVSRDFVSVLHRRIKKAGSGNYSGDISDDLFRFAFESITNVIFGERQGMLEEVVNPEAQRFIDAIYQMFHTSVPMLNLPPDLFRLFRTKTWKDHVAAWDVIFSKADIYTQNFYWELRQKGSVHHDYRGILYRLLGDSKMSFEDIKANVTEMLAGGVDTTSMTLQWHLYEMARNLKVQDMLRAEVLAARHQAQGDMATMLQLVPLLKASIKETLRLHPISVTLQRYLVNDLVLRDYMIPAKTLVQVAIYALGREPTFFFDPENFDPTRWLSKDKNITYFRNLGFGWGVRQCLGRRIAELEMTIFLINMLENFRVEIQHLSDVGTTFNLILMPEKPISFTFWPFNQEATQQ
Put plainly: H295R Steroid Biosynthesis Inhibition Assay - inhibition of pregnenolone (P) production catalyzed by CYP11A1 in NCI-H295R cells. It is filed as cell-based. The following applies: 48 h, LC-MS/MS, read-out: Inh. of P IC50. The method, then: (§1) Steroid Biosynthesis Inhibition by test compounds in NCI-H295R cells (ATCC) was studied by measuring the cellular production of pregnenolone (P) catalyzed by CYP11A1 and the downstream steroid, testosterone (T). Cells were cultured in Dulbecco's modified eagle's medium F12 (DMEM/F12) with phenol red (Gibco, Cat. No. 11330032) supplemented with 2% UltroserG (Pall, Cat. No. 15950-017, USA), 1% ITS-Premix and 1% penicillin and streptomycin (Hyclone, Cat. No. SV30010, USA). Prior to the assay, cells were thawed and passed 4 times. The maximal passage number used for the assay was 10. For this assay, DMEM/F12 without phenol red supplemented with 10% charcoal-stripped fetal bovine serum (VivaCell, Cat. No. C3830-0500, USA) were used. In a 96-well plate, 60,000 cells/well were plated (90 μL/well) and incubated for 24 h. Test compounds, diluted in a serial dilution ranging from 1000 nM to 0.15 nM in the assay medium, were added to the plate. After 48 h of incubation, solution from each well were collected and transferred to individual 1.5 mL centrifuge tubes, and then 5 ng/mL deuterated testosterone (D3-testosterone) and 50 ng/mL deuterated pregnenolone (D4-pregnenolone) in 200 μL acetonitrile were added. After vigorously mixing for 5 min, the mixture was centrifuged at 12,700 rpm for 15 min. An aliquot of 250 μL supernatant was collected and dried under N2 stream. After addition of 150 μL Methanol:water (1:1, v/v) to the dried product, 50 μL sample of this solution was injected into the LC-MS/MS system for analysis.
(§2) The half-maximal inhibitory concentration (IC50) for steroid biosynthesis inhibition was determined by curve-fitting with the 4-variable inhibitory dose response equation using GraphPad Prism software.
(§3) Testosterone and pregnenolone were analyzed using Shimadzu LC30AD HPLC system (Shimadzu, Kyoto, Japan) coupled with AB SCIEX Qtrap 5500 triple quadrupole mass spectrometer (AB Sciex, Framingham, MA, USA) via ESI interface in the positive ionization mode. An ACQUITY UPLC BEH Shield RP18 column (1.7 μm, 2.1×50 mm, Milford, MA, USA) maintained at 40° C. was used to separate analytes and IS form the sample matrix.
(§4) The mobile phase was a mixture of 10 mM ammonium acetate in water containing 0.2% formic acid (A) and methanol containing 0.2% formic acid (B) at a flow rate of 0.6 mL/min. The gradient program was set as follows: from 0 min to 0.5 min, 60% B; from 0.5 min to 3.5 min, 90% B; from 3.5 min to 4.5 min, 90% B; from 4.51 min to 5.0 min, 60% B. The injection volume was […].
(§5) The MS/MS parameters were set as follows: ion spray voltage, 5500 V; curtain gas, 35 psi; Gas 1, 55 psi; Gas 2: 55 psi; temperature, […]. The optimized multiple reaction monitoring (MRM) fragmentation transitions and MS parameters of each analyte are summarized in Table 1.

The target of experiment [1] is T2, testosterone (T) production in NCI-H295R cells (Homo sapiens, UniProt P05108).
T2 construct: testosterone measured by LC-MS/MS as downstream steroid
T2 sequence (P05108 40-521): T1 sequence (P05108 40-521)
Put plainly: H295R Steroid Biosynthesis Inhibition Assay - inhibition of testosterone (T) production in NCI-H295R cells. It is filed as cell-based. The note with it: 48 h, LC-MS/MS, read-out: Inh. of T IC50. The method, then:
as §1, §2, §3, §4, §5

Each structure is given as a SMILES string.

For `CO[C@H]1CC[C@H](c2cc3oc(CN4Cc5ccccc5C4)cc(=O)c3o2)CC1` [Compound 38], the IC50 (on CYP11A1; in experiment [1]) was not above 40 nM throughout.

Turning to `O=c1cc(CN2Cc3ccccc3C2)oc2cc(C3C4CC(O)CC43)oc12` (stereo not drawn) [Compound 39], the IC50 (on CYP11A1; in experiment [1]) was not above 40 nM in each case.

Turning to `O=c1cc(CN2Cc3ccccc3C2)oc2cc([C@H]3CC[C@@]4(O)CC4C3)oc12` (stereo partly drawn) [Compound 40], the IC50 (on CYP11A1; in experiment [1]) was not above 40 nM in each case.

On to `C[C@]1(c2cc3oc(CN4Cc5ccccc5C4)cc(=O)c3o2)CC[C@H](O)CC1` [Compound 41], for which the IC50 (on CYP11A1; in experiment [1]) was not above 40 nM throughout.

`N#C[C@]1(c2cc3oc(CN4Cc5ccccc5C4)cc(=O)c3o2)CC[C@H](O)CC1` [Compound 43]: the IC50 on CYP11A1 is not above 40 nM; in experiment [1] it was 41 to 100 nM.

For the compound `CS(=O)(=O)N[C@H]1CC[C@H](c2cc3oc(CN4Cc5ccccc5C4)cc(=O)c3o2)CC1` [Compound 44], the IC50 (at CYP11A1; in experiment [1]) was not above 40 nM each time.

With `COC(=O)N[C@H]1CC[C@H](c2cc3oc(CN4Cc5ccccc5C4)cc(=O)c3o2)CC1` [Compound 45], the IC50 (on CYP11A1; in experiment [1]) was not above 40 nM each time.

Regarding `NC(=O)[C@H]1CC[C@H](c2cc3oc(CN4Cc5ccccc5C4)cc(=O)c3o2)CC1` [Compound 46], the IC50 (on CYP11A1; in experiment [1]) was not above 40 nM throughout.

For the compound `CN(C)C(=O)[C@H]1CC[C@H](c2cc3oc(CN4Cc5ccccc5C4)cc(=O)c3o2)CC1` [Compound 47], the IC50 (at CYP11A1; in experiment [1]) was not above 40 nM in each case.

Turning to `N#C[C@H]1CC[C@H](c2cc3oc(CN4Cc5ccccc5C4)cc(=O)c3o2)CC1` [Compound 48], the IC50 is not above 40 nM at CYP11A1 and 41 to 100 nM in experiment [1].

With `CS(=O)(=O)c1ccc(-c2cc3oc(CN4Cc5ccccc5C4)cc(=O)c3o2)cc1` [Compound 49], the IC50 (at CYP11A1; in experiment [1]) was not above 40 nM in each case.

For `CP(C)(=O)c1ccc(-c2cc3oc(CN4Cc5ccccc5C4)cc(=O)c3o2)cc1` [Compound 50], the IC50 is not below 100 nM on CYP11A1 and not below 101 nM in experiment [1].

For `CNS(=O)(=O)c1ccc(-c2cc3oc(CN4Cc5ccccc5C4)cc(=O)c3o2)cc1` [Compound 51], the IC50 (on CYP11A1; in experiment [1]) was not above 40 nM throughout.

As to `CS(=O)(=O)Nc1ccc(-c2cc3oc(CN4Cc5ccccc5C4)cc(=O)c3o2)cc1` [Compound 52], the IC50 (at CYP11A1; in experiment [1]) was not above 40 nM each time.

For `CS(=O)(=O)N1C[C@@H]2[C@H](C1)[C@H]2c1cc2oc(CN3CCn4cccc4C3)cc(=O)c2o1` [Compound 53], the IC50 is 40 to 100 nM on CYP11A1 and 41 to 100 nM in experiment [1].

In the case of `O=c1cc(CN2CCn3cccc3C2)oc2cc([C@H]3CC[C@H](O)CC3)oc12` [Compound 54], the IC50 was not above 40 nM at CYP11A1 and 41 to 100 nM in experiment [1].

Regarding `CS(=O)(=O)N1CCC(c2cnc3cc(CN4Cc5ccccc5C4)ccc3n2)CC1` [Compound 55, 6-(isoindolin-2-ylmethyl)-2-(1-(methylsulfonyl)piperidin-4-yl)quinoxaline], the IC50 (at CYP11A1; in experiment [1]) was not above 40 nM in each case.

As for `CS(=O)(=O)N1C[C@@H]2[C@H](C1)[C@H]2c1ccc2cc(CN3Cc4ccccc4C3)ccc2n1` [Compound 56, 6-(isoindolin-2-ylmethyl)-2-((1R,5S,6r)-3-(methylsulfonyl)-3-azabicyclo[3.1.0]hexan-6-yl)quinoline], the 50% inhibitory concentration (IC50) (on CYP11A1; in experiment [1]) was not above 40 nM each time.

As to `CS(=O)(=O)N1CCC(c2ccc3oc(CN4Cc5ccccc5C4)cc(=O)c3c2)CC1` [Compound 57], the IC50 (at CYP11A1; in experiment [1]) was not above 40 nM each time.

As to `CS(=O)(=O)N1CCC(c2ccc3oc(CN4Cc5ccccc5C4)cc(=O)c3n2)CC1` [Compound 58], the IC50 (on CYP11A1; in experiment [1]) was not above 40 nM throughout.

As to `CS(=O)(=O)N1CCC(c2ccc3nc(CN4Cc5ccccc5C4)cc(=O)n3c2)CC1` [Compound 59], the IC50 (at CYP11A1; in experiment [1]) was not above 40 nM throughout.

For the compound `CS(=O)(=O)N1CCC(c2cc(=O)c3cc(CN4Cc5ccccc5C4)ccc3o2)CC1` [Compound 60], the IC50 (on CYP11A1; in experiment [1]) was not above 40 nM throughout.

Consider `CS(=O)(=O)N1CCC(c2cc(=O)c3nc(CN4Cc5ccccc5C4)ccc3o2)CC1` [Compound 61], for which the IC50 on CYP11A1 is not below 100 nM; in experiment [1], not below 101 nM.

Consider `CS(=O)(=O)N1CCC(c2cc(=O)n3cc(CN4Cc5ccccc5C4)ccc3n2)CC1` [Compound 62], for which the values for the IC50 (at CYP11A1; in experiment [1]) were 40 to 100 nM and not below 101 nM, respectively.

In the case of `Cn1c(C2CCN(S(C)(=O)=O)CC2)nc2ccc(CN3Cc4ccccc4C3)cc2c1=O` [Compound 63], the IC50 (on CYP11A1; in experiment [1]) was not above 40 nM in each case.

Turning to `CS(=O)(=O)N1CCC(N2CCc3cc(CN4Cc5ccccc5C4)ccc3C2=O)CC1` [Compound 64], the IC50 on CYP11A1 is not above 40 nM; in experiment [1], 41 to 100 nM.

`CS(=O)(=O)N1CC=C(c2coc3cc(CN4Cc5ccccc5C4)ccc3c2=O)CC1` [Compound 65]: the IC50 (at CYP11A1; in experiment [1]) was not above 40 nM throughout.

As to `CS(=O)(=O)N1CCC(c2ccc3cc(CN4Cc5ccccc5C4)ccc3c2)CC1` [Compound 66], the IC50 (on CYP11A1; in experiment [1]) was not above 40 nM each time.

As for `CS(=O)(=O)N1CCC(c2ccc3cc(CN4Cc5ccccc5C4)cnc3c2)CC1` [Compound 67], the IC50 (at CYP11A1; in experiment [1]) was not above 40 nM each time.

Turning to `CS(=O)(=O)N1CCC(c2ccc3cc(CN4Cc5ccccc5C4)ncc3c2)CC1` [Compound 68], the IC50 (on CYP11A1; in experiment [1]) was not above 40 nM each time.

Regarding `CS(=O)(=O)N1CCC(c2cnc3cc(CN4Cc5ccccc5C4)ccc3c2)CC1` [Compound 69], the IC50 (at CYP11A1; in experiment [1]) was not above 40 nM in each case.

Regarding `CS(=O)(=O)N1CCC(c2ccc3cc(CN4Cc5ccccc5C4)ccc3n2)CC1` [Compound 71], the IC50 (on CYP11A1; in experiment [1]) was not above 40 nM each time.

`CS(=O)(=O)N1CCC(c2ccc3cc(CN4Cc5ccc(F)cc5C4)ccc3n2)CC1` [Compound 72]: the IC50 (at CYP11A1; in experiment [1]) was not above 40 nM in each case.

Regarding `COc1ccc2c(c1)CN(Cc1ccc3nc(C4CCN(S(C)(=O)=O)CC4)ccc3c1)C2` [Compound 73], the IC50 (at CYP11A1; in experiment [1]) was not above 40 nM in each case.

`OC1CCN(c2ccc3cc(CN4Cc5ccccc5C4)ccc3n2)CC1` [Compound 74]: the figures for the IC50 (at CYP11A1; in experiment [1]) were not below 100 nM and not below 101 nM, respectively.

On to `CS(=O)(=O)N1CC2(CC(c3ccc4cc(CN5Cc6ccccc6C5)ccc4n3)C2)C1` [Compound 75], for which the half-inhibitory concentration (IC50) (on CYP11A1; in experiment [1]) was not above 40 nM in each case.

With `CS(=O)(=O)N1CCC(c2ccc3cc(CN4CCn5cccc5C4)ccc3n2)CC1` [Compound 76], the IC50 was 40 to 100 nM at CYP11A1 and not below 101 nM in experiment [1].

Take `CS(=O)(=O)N1CCC(c2cc(Cl)c3cc(CN4Cc5ccccc5C4)ccc3n2)CC1` [Compound 77]: the half-inhibitory concentration (IC50) (on CYP11A1; in experiment [1]) was not above 40 nM each time.

Turning to `CS(=O)(=O)N1CCC(c2ccc3cc(CN4Cc5ccccc5C4)cnc3n2)CC1` [Compound 78], the half-maximal inhibitory concentration (IC50) (on CYP11A1; in experiment [1]) was not above 40 nM throughout.
